pIC50: −log10 of the molar value. Where two headings read alike, the source gives them in different places.
Legend:
[1] = molecular target: T1, NK1-receptor (substance P-receptor) (Homo sapiens, UniProt P25103); assay: NK1-receptor (substance P-receptor) affinity: displacement of 125I-labelled substance P on IM-9 cells; format: binding
T1 construct: cloned NK1 -receptors on human lymphoblastoma cells (IM-9); endogenous in cells; host or cells: IM-9 human lymphoblastoma cells
Experimental: (§1) The receptor affinity at the NK1 -receptor (substance P-receptor) was determined with cloned NK1 -receptors on human lymphoblastoma cells (IM-9), whereby the displacement of ^125 I-labelled substance P is measured. The NK2 -binding test is carried out on transfixed A20 cells which represent the human NK2 receptor. The displacement of ^125 I-BN-neusolinine A is determined.

human NK2 receptor = molecular target: T2, human NK2 receptor (Homo sapiens, UniProt P21452); assay: NK2-binding test: displacement of 125I-labelled ligand on A20 cells which represent the human NK2 receptor; conditions: transfixed A20 cells (human NK2 receptor); displacement of 125I-BN-neusolinine A
T2 construct: expressed in transfected cells; host or cells: A20 cells
T2 sequence (P21452 1-398): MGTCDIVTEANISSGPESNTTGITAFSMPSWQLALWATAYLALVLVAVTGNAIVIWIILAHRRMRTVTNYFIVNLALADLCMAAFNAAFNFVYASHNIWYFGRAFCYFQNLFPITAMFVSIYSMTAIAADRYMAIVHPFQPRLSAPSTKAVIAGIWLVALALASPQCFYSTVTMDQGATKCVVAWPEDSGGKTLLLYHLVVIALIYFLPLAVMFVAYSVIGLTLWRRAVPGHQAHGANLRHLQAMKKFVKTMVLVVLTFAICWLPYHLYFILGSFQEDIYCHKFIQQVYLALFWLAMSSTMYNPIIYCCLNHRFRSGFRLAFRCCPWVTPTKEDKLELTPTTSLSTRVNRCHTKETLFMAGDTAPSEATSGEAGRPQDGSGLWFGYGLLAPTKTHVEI
Experimental: as §1

[2] = cloned NK1-receptors on human lymphoblastoma cells (IM-9), displacement of 125I-labelled substance P, read-out: NK1 IC50

T1 sequence (P25103 whole entry): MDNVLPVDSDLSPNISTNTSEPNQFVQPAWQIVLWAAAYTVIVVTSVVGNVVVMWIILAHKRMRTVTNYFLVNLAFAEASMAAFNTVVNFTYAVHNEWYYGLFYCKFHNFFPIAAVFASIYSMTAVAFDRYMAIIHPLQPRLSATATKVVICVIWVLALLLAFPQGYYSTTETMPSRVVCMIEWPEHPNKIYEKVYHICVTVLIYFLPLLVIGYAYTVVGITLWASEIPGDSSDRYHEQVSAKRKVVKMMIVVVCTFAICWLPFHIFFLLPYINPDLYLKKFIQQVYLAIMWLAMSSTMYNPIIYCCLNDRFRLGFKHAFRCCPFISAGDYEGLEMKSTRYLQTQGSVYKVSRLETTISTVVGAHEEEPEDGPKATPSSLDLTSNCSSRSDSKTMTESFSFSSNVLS

COc1ccccc1N1CCN(C(=O)[C@H](Cc2ccc3ccccc3c2)NC(=O)[C@@H]2C[C@@H](O)CN2C(=O)C23CCC(C)(C(=O)O2)C3(C)C)CC1 (stereo partly drawn) [Compound 24]
pIC50 [1, 2]: 8.48
pIC50 (human NK2 receptor): 5.91

CCc1ccccc1CN(C)C(=O)[C@H](Cc1c[nH]c2ccccc12)NC(=O)[C@@H]1C[C@@H](O)CN1C(=O)C1C(=O)C2(C)CCC1C2(C)C (stereo partly drawn) [Compound 44]
pIC50 [1, 2]: 8.29
pIC50 (human NK2 receptor): 7.41

Cc1ccccc1CN(C)C(=O)[C@H](Cc1cn(C)c2ccccc12)NC(=O)[C@@H]1C[C@@H](O)CN1C(=O)C1C(=O)C2(C)CCC1C2(C)C (stereo partly drawn) [Compound 45]
pIC50 [1, 2]: 8.31
pIC50 (human NK2 receptor): 7.23

Cc1ccccc1CN(C)C(=O)[C@H](Cc1c[nH]c2ccccc12)NC(=O)[C@@H]1C[C@@H](O)CN1C(=O)C1C(=O)C2(C)CCC1C2(C)C (single isomer, unassigned) [Compound 2]
pIC50 [1, 2]: 8.44
pIC50 (human NK2 receptor): 7.68

COc1ccccc1N1CCN(C(=O)[C@H](Cc2ccc3ccccc3c2)NC(=O)[C@@H]2C[C@@H](O)CN2C(=O)C2C3CC4C(C3=O)C42)CC1 (stereo partly drawn) [Compound 17]
pIC50 [1, 2]: 8.15
pIC50 (human NK2 receptor): 7.03

COc1ccccc1N1CCN(C(=O)[C@H](Cc2ccc3ccccc3c2)NC(=O)[C@@H]2C[C@@H](O)CN2C(=O)C2CCCCC2O)CC1 (stereo partly drawn) [Compound 21]
pIC50 [1, 2]: 7.70
pIC50 (human NK2 receptor): 6.89

CN(Cc1ccccc1)C(=O)[C@H](Cc1ccc2ccccc2c1)NC(=O)[C@@H]1C[C@@H](O)CN1C(=O)C1C(=O)C2(C)CCC1C2(C)C (stereo partly drawn) [Compound 27]
pIC50 [1, 2]: 9.30
pIC50 (human NK2 receptor): 6.35

CC12CCC(C(C(=O)N3C[C@H](O)C[C@H]3C(=O)N[C@@H](Cc3ccc4ccccc4c3)C(=O)N3CCN(C(c4ccc(F)cc4)c4ccc(F)cc4)CC3)C1=O)C2(C)C (stereo partly drawn) [Compound 10]
pIC50 [1, 2]: 6.70

COc1ccccc1N1CCN(C(=O)[C@H](Cc2ccc3ccccc3c2)NC(=O)[C@@H]2C[C@@H](O)CN2C(=O)C2C(O)C3CCN2CC3)CC1 (stereo partly drawn) [Compound 22]
pIC50 [1]: 7.60
pIC50 (human NK2 receptor): 5.89

Cc1ccccc1CN(C)C(=O)[C@H](Cc1c[nH]c2ccccc12)NC(=O)[C@@H]1CCCN1C(=O)C1C(=O)C2(C)CCC1C2(C)C (stereo partly drawn) [Compound 47]
pIC50 [1, 2]: 8.49
pIC50 (human NK2 receptor): 7.24

Cc1ccccc1N1CCN(C(=O)[C@H](Cc2ccc3ccccc3c2)NC(=O)[C@@H]2C[C@@H](O)CN2C(=O)C2C(=O)C3(C)CCC2C3(C)C)CC1 (stereo partly drawn) [Compound 3]
pIC50 [1, 2]: 8.52
pIC50 (human NK2 receptor): 7.19

CC12CCC(C(C(=O)N3C[C@H](O)C[C@H]3C(=O)N[C@@H](Cc3ccc4ccccc4c3)C(=O)N3CCN(c4ccccc4[N+](=O)[O-])CC3)C1=O)C2(C)C (stereo partly drawn) [Compound 11]
pIC50 [1, 2]: 8.49

COc1ccccc1N1CCN(C(=O)[C@H](Cc2ccc3ccccc3c2)NC(=O)[C@@H]2C[C@@H](O)CN2C(=O)C2CCCCC2=O)CC1 (stereo partly drawn) [Compound 25]
pIC50 [1, 2]: 7.74
pIC50 (human NK2 receptor): 6.06

CC12CCC(C(C(=O)N3C[C@H](O)C[C@H]3C(=O)N[C@@H](Cc3ccc4ccccc4c3)C(=O)N3CCN(c4ccccn4)CC3)C1=O)C2(C)C (stereo partly drawn) [Compound 6]
pIC50 [1, 2]: 7.35

CCOC(=O)c1ccccc1N1CCN(C(=O)[C@H](Cc2ccc3ccccc3c2)NC(=O)[C@@H]2C[C@@H](O)CN2C(=O)C2C(=O)C3(C)CCC2C3(C)C)CC1 (stereo partly drawn) [Compound 7]
pIC50 [1, 2]: 9.35
pIC50 (human NK2 receptor): 7.36

COc1ccccc1N1CCN(C(=O)[C@H](Cc2ccc3ccccc3c2)NC(=O)[C@@H]2C[C@@H](O)CN2S(=O)(=O)CC23CCC(CC2=O)C3(C)C)CC1 (stereo partly drawn) [Compound 20]
pIC50 [1, 2]: 7.59
pIC50 (human NK2 receptor): 6.46

COc1ccccc1N1CCN(C(=O)[C@H](Cc2ccc3ccccc3c2)NC(=O)[C@@H]2C[C@@H](O)CN2C(=O)C2C3CCC(C)(C2O)C3(C)C)CC1 (stereo partly drawn) [Compound 18]
pIC50 [1, 2]: 8.10
pIC50 (human NK2 receptor): 7.80

CC12CCC(C(C(=O)N3C[C@H](O)C[C@H]3C(=O)N[C@@H](Cc3ccc4ccccc4c3)C(=O)N3CCN(c4ccc5ccccc5c4)CC3)C1=O)C2(C)C (stereo partly drawn) [Compound 13]
pIC50 [1, 2]: 6.98
pIC50 (human NK2 receptor): 6.11

CC(C)c1ccccc1N1CCN(C(=O)[C@H](Cc2ccc3ccccc3c2)NC(=O)[C@@H]2C[C@@H](O)CN2C(=O)C2C(=O)C3(C)CCC2C3(C)C)CC1 (stereo partly drawn) [Compound 4]
pIC50 [1, 2]: 8.30
pIC50 (human NK2 receptor): 6.96

CC12CCC(C(C(=O)N3C[C@H](O)C[C@H]3C(=O)N[C@@H](Cc3ccc4ccccc4c3)C(=O)N3CCN(c4ccccc4C#N)CC3)C1=O)C2(C)C (stereo partly drawn) [Compound 16]
pIC50 [1, 2]: 9.15
pIC50 (human NK2 receptor): 7.72

COc1ccc(N2CCN(C(=O)[C@H](Cc3ccc4ccccc4c3)NC(=O)[C@@H]3C[C@@H](O)CN3C(=O)C3C(=O)C4(C)CCC3C4(C)C)CC2)c(C)c1 (stereo partly drawn) [Compound 5]
pIC50 [1, 2]: 7.96
pIC50 (human NK2 receptor): 6.93

COc1ccccc1CN1C(=O)C(NC(=O)[C@@H]2C[C@@H](O)CN2C(=O)C2C(=O)C3(C)CCC2C3(C)C)Cc2cc(OC)c(OC)cc21 (stereo partly drawn) [Compound 28]
pIC50 [1, 2]: 7.64
pIC50 (human NK2 receptor): 5.82

CC12CCC(C(C(=O)N3C[C@H](O)C[C@H]3C(=O)N[C@@H](Cc3ccc4ccccc4c3)C(=O)N3CCN(c4ccccc4O)CC3)C1=O)C2(C)C (stereo partly drawn) [Compound 12]
pIC50 [1, 2]: 8.25

CC12CCC(C(C(=O)N3C[C@H](O)C[C@H]3C(=O)N[C@@H](Cc3c[nH]c4ccccc34)C(=O)N3CCN(c4ccccc4C#N)CC3)C1=O)C2(C)C (stereo partly drawn) [Compound 26]
pIC50 [1, 2]: 7.55

COc1ccccc1N1CCN(C(=O)[C@H](Cc2ccc3ccccc3c2)NC(=O)[C@@H]2C[C@@H](O)CN2C(=O)C2CC3C=CC2(OC)CC3)CC1 (stereo partly drawn) [Compound 19]
pIC50 [1, 2]: 7.59
pIC50 (human NK2 receptor): 6.22

CC12CCC(C(C(=O)N3C[C@H](O)C[C@H]3C(=O)N[C@@H](Cc3ccc4ccccc4c3)C(=O)N3CCN(C4CCCCC4)CC3)C1=O)C2(C)C (stereo partly drawn) [Compound 9]
pIC50 [1, 2]: 7.77

COc1ccccc1N1CCN(C(=O)[C@H](Cc2ccc3ccccc3c2)NC(=O)[C@@H]2C[C@@H](O)CN2C(=O)C2CC3CCC2(OC)CC3)CC1 (stereo partly drawn) [Compound 23]
pIC50 [1, 2]: 7.85
pIC50 (human NK2 receptor): 6.85

CSc1ccccc1N1CCN(C(=O)[C@H](Cc2ccc3ccccc3c2)NC(=O)[C@@H]2C[C@@H](O)CN2C(=O)C2C(=O)C3(C)CCC2C3(C)C)CC1 (stereo partly drawn) [Compound 14]
pIC50 [1, 2]: 8.51
pIC50 (human NK2 receptor): 6.62

CN(Cc1ccccc1Br)C(=O)[C@H](Cc1c[nH]c2ccccc12)NC(=O)[C@@H]1C[C@@H](O)CN1C(=O)C1C(=O)C2(C)CCC1C2(C)C (stereo partly drawn) [Compound 43]
pIC50 [1, 2]: 8.92
pIC50 (human NK2 receptor): 7.68

COc1ccccc1N1CCN(C(=O)[C@H](Cc2ccc3ccccc3c2)NC(=O)[C@@H]2C[C@@H](O)CN2C(=O)C2C(=O)C3(C)CCC2C3(C)C)CC1 (single isomer, unassigned) [Compound 1]
pIC50 [1, 2]: 8.51
pIC50 (human NK2 receptor): 7.68

CC12CCC(C(C(=O)N3C[C@H](O)C[C@H]3C(=O)N[C@@H](Cc3ccc4ccccc4c3)C(=O)N3CCN(c4ccccc4Cl)CC3)C1=O)C2(C)C (stereo partly drawn) [Compound 8]
pIC50 [1, 2]: 8.52
pIC50 (human NK2 receptor): 7.74

CN(Cc1ccccc1Cl)C(=O)[C@H](Cc1c[nH]c2ccccc12)NC(=O)[C@@H]1C[C@@H](O)CN1C(=O)C1C(=O)C2(C)CCC1C2(C)C (stereo partly drawn) [Compound 42]
pIC50 [1, 2]: 8.92
pIC50 (human NK2 receptor): 7.27

CCOc1ccccc1N1CCN(C(=O)[C@H](Cc2ccc3ccccc3c2)NC(=O)[C@@H]2C[C@@H](O)CN2C(=O)C2C(=O)C3(C)CCC2C3(C)C)CC1 (stereo partly drawn) [Compound 15]
pIC50 [1, 2]: 8.49
pIC50 (human NK2 receptor): 7.42

From patent US5712273A, “Amino acid derivatives, processes for the manufacture thereof and pharmaceutical compositions (II) containing these compounds” (Boehringer Ingelheim GmbH, priority 1994, dated 1998)
